In ChEMBL document CHEMBL1201862, “PubChem BioAssay data set” (2004):
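Dose response: 5 concentrations. Exposure: 48 h. Format: 96-well plates. Endpoint: linear interpolation; highest concentration if not reached. Here, GI50 denotes the concentration required for 50% inhibition of growth.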 Activity calls are given as the source filed them. Rule as the data show it: active = GI50 up to about 1.1 µM and inactive = higher.

Columns and labels:
Test in all cases: DTP human tumour cell line panel, 48 h
786-0 = system: 786-0
A549 = system: A549
ACHN = system: ACHN
BT-549 = system: BT-549
CAKI-1 = system: CAKI-1
CCRF-CEM = system: CCRF-CEM
COLO 205 = system: COLO 205
DU-145 = system: DU-145
EKVX = system: EKVX
HCC 2998 = system: HCC 2998
HCT-116 = system: HCT-116
HCT-15 = system: HCT-15
HOP-62 = system: HOP-62
HOP-92 = system: HOP-92
HT-29 = system: HT-29
Hs-578T = system: Hs-578T
IGROV-1 = system: IGROV-1
K562 = system: K562
KM12 = system: KM12
LOX IMVI = system: LOX IMVI
M14 = system: M14
MCF7 = system: MCF7
MDA-MB-231 = system: MDA-MB-231
MDA-MB-435 = system: MDA-MB-435
MOLT-4 = system: MOLT-4
Malme-3M = system: Malme-3M
NCI-H23 = system: NCI-H23
NCI-H460 = system: NCI-H460
NCI-H522 = system: NCI-H522
NCI/ADR-RES = system: NCI/ADR-RES
OVCAR-3 = system: OVCAR-3
OVCAR-4 = system: OVCAR-4
OVCAR-5 = system: OVCAR-5
OVCAR-8 = system: OVCAR-8
PC-3 = system: PC-3
RPMI-8226 = system: RPMI-8226
RXF 393 = system: RXF 393
SF-268 = system: SF-268
SF-295 = system: SF-295
SF-539 = system: SF-539
SK-MEL-28 = system: SK-MEL-28
SK-MEL-2 = system: SK-MEL-2
SK-MEL-5 = system: SK-MEL-5
SK-OV-3 = system: SK-OV-3
SN12C = system: SN12C
SNB-19 = system: SNB-19
SNB-75 = system: SNB-75
SR = system: SR
SW-620 = system: SW-620
TK-10 = system: TK-10
U-251 = system: U-251
UACC-257 = system: UACC-257
UACC-62 = system: UACC-62
UO-31 = system: UO-31
A498 = system: A498
HL-60 = system: HL-60
NCI-H226 = system: NCI-H226
T47D = system: T47D

Q: `COC(=O)CCC(=O)NC1c2cccc3cccc(c23)Cn2c(=O)n(C)c(=O)n21` (stereo unspecified) was tested. Which GI50 (786-0) did it give?
A: > 100 µM (inactive)

Q: What about the GI50 (A549) of the same compound?
A: > 100 µM (inactive)

Q: What about the GI50 (ACHN) of the same compound?
A: > 100 µM (inactive)

Q: What about the GI50 (BT-549) of the same compound?
A: > 100 µM (inactive)

Q: What about the GI50 (CAKI-1) of the same compound?
A: > 100 µM (inactive)

Q: And the GI50 (CCRF-CEM)?
A: > 100 µM (inactive)

Q: What about the GI50 (COLO 205) of the same compound?
A: > 100 µM (inactive)

Q: And the GI50 (DU-145)?
A: > 100 µM (inactive)

Q: What about the GI50 (EKVX) of the same compound?
A: > 100 µM (inactive)

Q: What about the GI50 (HCC 2998) of the same compound?
A: > 100 µM (inactive)

Q: What about the GI50 (HCT-116) of the same compound?
A: > 100 µM (inactive)

Q: And the GI50 (HCT-15)?
A: > 100 µM

Q: What about the GI50 (HOP-62) of the same compound?
A: > 100 µM (inactive)

Q: What about the GI50 (HOP-92) of the same compound?
A: > 100 µM (inactive)

Q: What about the GI50 (HT-29) of the same compound?
A: > 100 µM (inactive)

Q: And the GI50 (Hs-578T)?
A: > 100 µM (inactive)

Q: And the GI50 (IGROV-1)?
A: > 100 µM (inactive)

Q: What about the GI50 (K562) of the same compound?
A: > 100 µM (inactive)

Q: What about the GI50 (KM12) of the same compound?
A: > 100 µM (inactive)

Q: What about the GI50 (LOX IMVI) of the same compound?
A: > 100 µM (inactive)

Q: And the GI50 (M14)?
A: > 100 µM (inactive)

Q: What about the GI50 (MCF7) of the same compound?
A: > 100 µM (inactive)

Q: And the GI50 (MDA-MB-231)?
A: > 100 µM (inactive)

Q: And the GI50 (MDA-MB-435)?
A: > 100 µM (inactive)

Q: What about the GI50 (MOLT-4) of the same compound?
A: > 100 µM (inactive)

Q: What about the GI50 (Malme-3M) of the same compound?
A: > 100 µM (inactive)

Q: And the GI50 (NCI-H23)?
A: > 100 µM (inactive)

Q: What about the GI50 (NCI-H460) of the same compound?
A: > 100 µM (inactive)

Q: What about the GI50 (NCI-H522) of the same compound?
A: > 100 µM (inactive)

Q: And the GI50 (NCI/ADR-RES)?
A: > 100 µM (inactive)

Q: And the GI50 (OVCAR-3)?
A: > 100 µM (inactive)

Q: What about the GI50 (OVCAR-4) of the same compound?
A: > 100 µM (inactive)

Q: What about the GI50 (OVCAR-5) of the same compound?
A: > 100 µM (inactive)

Q: What about the GI50 (OVCAR-8) of the same compound?
A: > 100 µM (inactive)

Q: And the GI50 (PC-3)?
A: > 100 µM (inactive)

Q: What about the GI50 (RPMI-8226) of the same compound?
A: > 100 µM (inactive)

Q: What about the GI50 (RXF 393) of the same compound?
A: > 100 µM (inactive)

Q: And the GI50 (SF-268)?
A: > 100 µM (inactive)

Q: What about the GI50 (SF-295) of the same compound?
A: > 100 µM (inactive)

Q: And the GI50 (SF-539)?
A: > 100 µM (inactive)

Q: What about the GI50 (SK-MEL-28) of the same compound?
A: > 100 µM (inactive)

Q: What about the GI50 (SK-MEL-2) of the same compound?
A: > 100 µM (inactive)

Q: What about the GI50 (SK-MEL-5) of the same compound?
A: > 100 µM (inactive)

Q: What about the GI50 (SK-OV-3) of the same compound?
A: > 100 µM (inactive)

Q: And the GI50 (SN12C)?
A: > 100 µM (inactive)

Q: What about the GI50 (SNB-19) of the same compound?
A: > 100 µM (inactive)

Q: What about the GI50 (SNB-75) of the same compound?
A: > 100 µM (inactive)

Q: What about the GI50 (SR) of the same compound?
A: > 100 µM (inactive)

Q: And the GI50 (SW-620)?
A: > 100 µM (inactive)

Q: What about the GI50 (TK-10) of the same compound?
A: > 100 µM (inactive)

Q: And the GI50 (U-251)?
A: > 100 µM (inactive)

Q: And the GI50 (UACC-257)?
A: > 100 µM (inactive)

Q: And the GI50 (UACC-62)?
A: > 100 µM (inactive)

Q: And the GI50 (UO-31)?
A: > 100 µM (inactive)

Q: What does the source list for `N=C(N)N/N=C/c1c(-c2ccccc2[N+](=O)[O-])nc2sccn12`?
A: GI50 (786-0): 19.5 µM (inactive); GI50 (A498): 18.8 µM (inactive); GI50 (A549): 34.1 µM (inactive); GI50 (ACHN): 39.3 µM (inactive); GI50 (BT-549): 30.7 µM (inactive); GI50 (CAKI-1): 64.9 µM (inactive); GI50 (CCRF-CEM): 19.4 µM (inactive); GI50 (COLO 205): 15.8 µM (inactive); GI50 (DU-145): 48.2 µM (inactive); GI50 (EKVX): 43.8 µM (inactive); GI50 (HCT-116): 18.6 µM (inactive); GI50 (HCT-15): > 100 µM; GI50 (HL-60): 16.6 µM (inactive); GI50 (HOP-62): 25.7 µM (inactive); GI50 (HOP-92): 27.1 µM (inactive); GI50 (HT-29): 27.7 µM (inactive); GI50 (Hs-578T): 29.1 µM (inactive); GI50 (IGROV-1): 37.6 µM (inactive); GI50 (K562): 14.1 µM (inactive); GI50 (KM12): 20.4 µM (inactive); GI50 (LOX IMVI): 19.9 µM (inactive); GI50 (M14): 16.7 µM (inactive); GI50 (MCF7): 19.1 µM (inactive); GI50 (MDA-MB-231): 16.1 µM (inactive); GI50 (MDA-MB-435): 17.1 µM (inactive); GI50 (MOLT-4): 17.7 µM (inactive); GI50 (Malme-3M): 15.7 µM (inactive); GI50 (NCI-H226): 17.4 µM (inactive); GI50 (NCI-H23): 29.2 µM (inactive); GI50 (NCI-H460): 19.1 µM (inactive); GI50 (NCI-H522): 17 µM (inactive); GI50 (NCI/ADR-RES): > 100 µM (inactive); GI50 (OVCAR-3): 24.9 µM (inactive); GI50 (OVCAR-4): 45.9 µM (inactive); GI50 (OVCAR-5): 30.7 µM (inactive); GI50 (OVCAR-8): 32.2 µM (inactive); GI50 (PC-3): 24.3 µM (inactive); GI50 (RPMI-8226): 19.5 µM (inactive); GI50 (RXF 393): 12.6 µM (inactive); GI50 (SF-268): 28.8 µM (inactive); GI50 (SF-295): 22 µM (inactive); GI50 (SF-539): 19.2 µM (inactive); GI50 (SK-MEL-28): 30.8 µM (inactive); GI50 (SK-MEL-2): 15.1 µM (inactive); GI50 (SK-MEL-5): 16.9 µM (inactive); GI50 (SK-OV-3): 42.9 µM (inactive); GI50 (SN12C): 32.5 µM (inactive); GI50 (SNB-19): 23.8 µM (inactive); GI50 (SNB-75): 11.9 µM (inactive); GI50 (SR): 14.4 µM (inactive); GI50 (SW-620): 18.4 µM (inactive); GI50 (T47D): 18.3 µM (inactive); GI50 (TK-10): 23.6 µM (inactive); GI50 (U-251): 15.8 µM (inactive); GI50 (UACC-257): 18.3 µM (inactive); GI50 (UACC-62): 17.5 µM (inactive); GI50 (UO-31): 36.8 µM (inactive)
